Key:
β-galactosidase = assay: β-Galactosidase activity assay in M. smegmatis; type: cell-based
GFP = type: cell-based, M. tuberculosis
M. smegmatis RiboS-katG = assay: Isoniazid antibiotic resistance assay, RiboS-katG strain
lacZ reporter gene = assay: β-galactosidase assay in B. subtilis; details: switches B and E compared
Procedure: B. subtilis strain JH642 (2) was grown at 37° C. in LB with shaking (250 rpm). […] To assay for β-galactosidase activity, strains harboring the riboswitches were grown overnight in LB media with 20 μg/mL kanamycin. In the morning, cells were diluted 1:100 into fresh selective media containing 1 mM IPTG and either 0 or 2 mM theophylline. β-galactosidase assays were performed by the method of Miller (13) using permeabilization with toluene. […] Error bars are ±SD.

## Cn1c(=O)c2[nH]cnc2n(C)c1=O [theophylline]
β-galactosidase
  theophylline concentration of maximum β-galactosidase reporter expression: ~2 mM
GFP
  theophylline concentration of maximal GFP expression: ~2 mM

## NNC(=O)c1ccncc1 [isoniazid]
M. smegmatis RiboS-katG; 0-10 mM theophylline
  isoniazid EC50 with increasing theophylline concentrations: the EC50 decreases
M. smegmatis RiboS-katG; no theophylline
  isoniazid phenotype in the absence of theophylline: isoniazid resistance phenotype

B1: Riboswitch B: synthetic theophylline-responsive riboswitch, mRNA sequence SEQ ID NO: 12 (nucleic acid)
chain: GGUACCGGUGAUACCAGCAUCGUCUUGAUGCCCUUGGCAGCACCCGCUGCGCAGGGGGUAUCAACAAGAUG
modifications: chemistry not fully specified
lacZ reporter gene
  activation ratios and levels of expression compared: comparable activation ratios, but substantially different levels of expression
